Results from patent publication US5486597A, “Tetrapeptide derivatives and analogues” (James Black Foundation Limited, priority 1990, dated 1996).
Non-standard residues stand in square brackets, D forms with d. Residues, ends and D or L forms follow the SMILES beside them. *: point of attachment. 2Nal = N[C@@H](Cc1ccc2ccccc2c1)C(=O)O; Phe(ol) = N[C@H](CO)Cc1ccccc1; Boc = CC(C)(C)OC(=O)*; For = O=C*

Tests used:
Type in all cases: cell-based
[1] = molecular target: T1, cholecystokinin receptors (Cavia porcellus, UniProt Q63931); assay: CCK-antagonist activity in isolated guinea-pig gall-bladder strip preparations; details: guinea-pig gall-bladder strips; CCK-8 as agonist; test compound incubated for 60 minutes; standard errors less than 5%
T1 construct: Isolated, strip preparations were prepared from gall-bladders removed from male Dunkin-Hartley guinea-pigs; from tissue; host or cells: guinea-pig gall-bladder strips
T1 sequence (Q63931 1-430): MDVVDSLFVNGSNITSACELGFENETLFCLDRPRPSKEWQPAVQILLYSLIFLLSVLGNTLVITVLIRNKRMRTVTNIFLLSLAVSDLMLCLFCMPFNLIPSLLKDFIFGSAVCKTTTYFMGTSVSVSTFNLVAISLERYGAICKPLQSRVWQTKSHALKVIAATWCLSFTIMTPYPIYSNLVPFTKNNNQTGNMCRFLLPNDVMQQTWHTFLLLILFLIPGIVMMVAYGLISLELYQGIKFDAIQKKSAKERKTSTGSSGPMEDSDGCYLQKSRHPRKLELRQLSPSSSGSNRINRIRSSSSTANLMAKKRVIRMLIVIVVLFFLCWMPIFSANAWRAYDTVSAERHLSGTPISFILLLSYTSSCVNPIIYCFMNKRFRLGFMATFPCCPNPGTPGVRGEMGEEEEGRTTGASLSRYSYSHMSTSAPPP
Experimental: The compounds of the invention were also assayed for CCK-antagonist activity as follows:
Isolated, strip preparations were prepared from gall-bladders removed from male Dunkin-Hartley guinea-pigs (250-500 g body weight) according to the method of La Morte, W. W., et al., J.P.E.T., 217, (3), 638-644 (1981).
The complete gall-bladder is removed and opened along the longitudinal axis. Strips measuring 3 mm in the longitudinal axis and 1 mm in the transverse axis are cut and then tied with cotton to stainless steel wires. The preparation is connected to a GRASS FTO3 isometric transducer under an initial loading tension of 1 g and is immersed in 20 mls of Krebs solution maintained at 37° C. and gassed with 95% O2 /5% CO2. The Krebs solution is as detailed above in connection with the fundus assay, except that the Ca^2+ concentration is decreased to 0.5 mM. After 30 mins the preparation is washed. Drug addition begins after an initial 90 min stabilisation period. Responses are measured as changes in tension from that immediately prior to any drug addition. Single cumulative agonist concentration-effect curves, using CCK-8 as agonist, are obtained on each preparation in the absence and presence of test compound which has been incubated for 60 minutes. The antagonist activity of the test compound is estimated and expressed as the negative logarithm (base 10) of the equilibrium dissociation constants (pK8) using the modifications of standard competitive analysis described by Black et al., Br. J. Pharmacol.,86,571-579, (1985) and Shankley et al., Br. J. Pharmacol.,94,264-274 (1988).

gastrin receptor [2] = molecular target: T2, gastrin receptor (Cavia porcellus, UniProt H0VZC5); assay: guinea-pig fundus assay for gastrin activity (stomach muscle strips); details: 10^-8 M devazepide present, 60 minute equilibration, agonist e.g. pentagastrin, standard errors less than 5%
T2 construct: Strips of muscle (approximately 2.5 cm by 1 cm) are removed from the proximal area of the stomach; from tissue; host or cells: guinea-pig proximal stomach (fundus) muscle strips
T2 sequence (H0VZC5 1-426): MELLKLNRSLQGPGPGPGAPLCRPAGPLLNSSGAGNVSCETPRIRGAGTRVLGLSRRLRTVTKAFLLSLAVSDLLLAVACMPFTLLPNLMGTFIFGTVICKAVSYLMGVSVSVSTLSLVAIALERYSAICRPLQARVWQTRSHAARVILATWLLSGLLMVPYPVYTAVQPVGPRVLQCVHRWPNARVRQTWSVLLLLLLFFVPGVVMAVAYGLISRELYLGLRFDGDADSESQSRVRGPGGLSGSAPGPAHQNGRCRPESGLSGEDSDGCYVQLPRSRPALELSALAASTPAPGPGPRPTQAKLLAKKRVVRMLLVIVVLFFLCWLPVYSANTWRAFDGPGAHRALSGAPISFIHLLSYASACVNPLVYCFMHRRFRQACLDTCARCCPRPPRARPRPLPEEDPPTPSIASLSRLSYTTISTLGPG
Experimental: The compounds were assayed for gastrin activity using the mouse stomach assay as described by Black, J. W. and Shankley, N. P., Br. J. Pharmacol., 86, 571-579, (1985), and also in the guinea-pig fundus assay, as follows:
The stomach is removed from a male Dunkin-Hartley guinea-pig (250-500 g), and Krebs solution is injected through a hypodermic needle under the top stomach muscle layer. The composition (mM) of the Krebs solution is as follows: Na^+ 143, K^+ 5.9, Ca^2+ 2.5, Mg^2+ 1.2, Cl^- 128, H2 PO4^- 2.2, HCO3^- 24.9, SO4^2- 1.2, dextrose 10. Strips of muscle (approximately 2.5 cm by 1 cm) are removed from the proximal area of the stomach (one from each side) and tied with cotton thread to isotonic transducers under an initial loading tension of 0.35 g.
The preparation is immersed in 20 mls of Krebs solution containing 10^-8 M devazepide (25 μl 2×10^-3 M devazepide/100% DMF solution in 5 dm^3 Krebs) and gassed with 95% O2 /5% CO2. The function of the devazepide is to block possible effects at CCK receptors present in the tissue.
The preparation is washed twice over a 60 minute period then 10 mM KCl is added. At 90 minutes, test compounds (ie. potential antagonists) are added and a further 60 minute equilibration period allowed. After this time, cumulative agonist (e.g. pentagastrin) dose-response curves are constructed.

gastrin receptor [3] = molecular target: T3, gastrin receptor (Mus musculus, UniProt P56481); assay: mouse stomach assay for gastrin activity (isolated stomach, acid secretion); details: for pKB mouse stomach: isolated mouse stomach assay, gastrin antagonism, standard errors less than 5%; for Acid seretion at 10^-5 M test compound, relative to pentagastrin (%): mouse stomach, NS = not significant
T3 construct: assayed for gastrin activity using the mouse stomach assay; from tissue; host or cells: isolated mouse stomach
T3 sequence (P56481 1-453): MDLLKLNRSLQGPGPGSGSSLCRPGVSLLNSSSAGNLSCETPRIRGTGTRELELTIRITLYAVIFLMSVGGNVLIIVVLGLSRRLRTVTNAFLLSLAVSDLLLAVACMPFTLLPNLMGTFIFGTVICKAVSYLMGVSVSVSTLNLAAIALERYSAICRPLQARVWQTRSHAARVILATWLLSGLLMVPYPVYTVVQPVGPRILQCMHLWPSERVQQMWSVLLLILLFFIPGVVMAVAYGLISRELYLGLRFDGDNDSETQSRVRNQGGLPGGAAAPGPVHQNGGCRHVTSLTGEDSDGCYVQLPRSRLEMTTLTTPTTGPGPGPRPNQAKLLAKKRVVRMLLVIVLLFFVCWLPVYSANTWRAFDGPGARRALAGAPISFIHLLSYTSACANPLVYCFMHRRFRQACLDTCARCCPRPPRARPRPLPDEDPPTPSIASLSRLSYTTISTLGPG
Experimental: The compounds were assayed for gastrin activity using the mouse stomach assay as described by Black, J. W. and Shankley, N. P., Br. J. Pharmacol., 86, 571-579, (1985), and also in the guinea-pig fundus assay, as follows: […]

For `CC(C)(C)OC(=O)N[C@@H](Cc1c[nH]c2ccccc12)C(=O)N[C@@H](Cc1ccc2ccccc2c1)C(=O)N[C@@H](CC(=O)O)C(=O)NCCc1ccc(S(N)(=O)=O)cc1` [Example 49, N-t-Butyloxycarbonyl-L-tryptophyl-L-3-(2-naphthyl)alanyl-L-aspartyl-4-sulphonamidophenethylamide], which pKB [1] is on record?
The pKB was 6.8.

What about the pKB (gastrin receptor [2]) of the same compound?
The pKB was 6.2.

With `Cc1cccc(CCNC(=O)[C@H](CC(=O)O)NC(=O)[C@H](Cc2ccc3ccccc3c2)NC(=O)[C@H](Cc2c[nH]c3ccccc23)NC(=O)OC(C)(C)C)c1` [Example 39, N-t-Butyloxycarbonyl-L-tryptophyl-L-3-(2-naphthyl)alanyl-L-aspartyl-3-methylphenethylamide] as the compound, how does the pKB [1] read?
The pKB was 6.7.

And the pKB (gastrin receptor [2])?
Its pKB is 5.4.

How did the Kb [1] turn out when `NC(=O)[C@H](Cc1ccccc1)NC(=O)[C@H](CC(=O)O)NC(=O)[C@H](Cc1ccc2ccccc2c1)NC(=O)[C@H](Cc1c[nH]c2ccccc12)NC=O` [Example 15, N-Formyl-L-tryptophyl-L-3-(2-naphthyl)alanyl-L-aspartyl-L-phenylalaninamide] (For-W[2Nal]DF-NH2) was run?
Its Kb is 631 nM.

What about the Kb (gastrin receptor [2]) of the same compound?
Its Kb is 5010 nM.

With “N-t-Butyloxycarbonyl-L-tryptophyl-L-3-(2-naphthyl)alanyl-L-aspartyl-3,4-dimethoxyphenethylamide [Example 41]” as the compound, how does the pKB [1] read?
Its pKB is 6.5.

What about the pKB (gastrin receptor [2]) of the same compound?
The pKB was 6.0.

With `CC(C)(C)OC(=O)N[C@@H](Cc1c[nH]c2ccccc12)C(=O)N[C@@](C)(Cc1ccc2ccccc2c1)C(=O)N[C@@H](CC(=O)O)C(=O)N[C@@H](Cc1ccccc1)C(N)=O` [Example 57, N-t-Butyloxycarbonyl-L-tryptophyl-L-2-methyl-3-(2-naphthyl)alanyl-L-aspartyl-L-phenylalaninamide] as the compound, how does the pKB [1] read?
Its pKB is 6.0.

What about the pKB (gastrin receptor [2]) of the same compound?
Its pKB is 5.6.

`CC(C)(C)OC(=O)N[C@@H](Cc1c[nH]c2ccccc12)C(=O)N[C@@H](Cc1ccc2ccccc2c1)C(=O)N[C@@H](CC(=O)O)C(=O)N[C@H](CO)Cc1ccccc1` [Example 9, N-t-Butyloxycarbonyl-L-tryptophyl-L-3-(2-naphthyl)alanyl-L-aspartyl-L-phenylalaninol] (Boc-W[2Nal]D[Phe(ol)]) was tested. Which Kb [1] did it give?
Its Kb is 1260 nM.

What about the Kb (gastrin receptor [2]) of the same compound?
The Kb was 2510 nM.

Which pKB [1] does the source give for `COc1ccc(CCNC(=O)[C@H](CCC(=O)O)NC(=O)[C@H](Cc2ccc3ccccc3c2)NC(=O)[C@H](Cc2c[nH]c3ccccc23)NC(=O)OC(C)(C)C)cc1` [Example 61, N-t-Butyloxycarbonyl-L-tryptophyl-L-3-(2-naphthyl)alanyl-L-glutamyl-4-methoxyphenethylamide] here?
Its pKB is 6.5.

What about the pKB (gastrin receptor [2]) of the same compound?
Its pKB is 5.7.

Which pKB [1] does the source give for `CC(C)(C)OC(=O)N[C@@H](Cc1c[nH]c2ccccc12)C(=O)N[C@@H](Cc1ccc2ccccc2c1)C(=O)N[C@@H](CC(=O)O)C(=O)N1CCc2ccccc2C1` [Example 26, N-[N-t-Butyloxycarbonyl-L-tryptophyl-L-3-(2-naphthyl)alanyl-L-aspartyl]-1,2,3,4-tetrahydroisoquinolinamide] here?
The pKB was 6.6.

And the pKB (gastrin receptor [2])?
The pKB was 5.5.

How did the Kb [1] turn out when `CC(C)(C)OC(=O)N[C@@H](Cc1c[nH]c2ccccc12)C(=O)N[C@@H](Cc1ccc2ccccc2c1)C(=O)N[C@H](CC(=O)O)C(=O)N[C@@H](Cc1ccccc1)C(N)=O` [Example 12, N-t-Butyloxycarbonyl-L-tryptophyl-L-3-(2-naphthyl)alanyl-D-aspartyl-L-phenylalaninamide] (Boc-W[2Nal][dD]F-NH2) was run?
Its Kb is 39.8 nM.

What about the Kb (gastrin receptor [2]) of the same compound?
The Kb was 3160 nM.

`CN(C)C(=O)[C@H](Cc1ccccc1)NC(=O)[C@H](CC(=O)O)NC(=O)[C@H](Cc1ccc2ccccc2c1)NC(=O)[C@H](Cc1c[nH]c2ccccc12)NC(=O)OC(C)(C)C` [Example 6, N-t-Butyloxycarbonyl-L-tryptophyl-L-3-(2-naphthyl)alanyl-L-aspartyl-L-phenylalanyl-(N,Ndimethyl)amide] (Boc-W[2Nal]DF-NMe2) was tested. Which pKB mouse stomach (gastrin receptor [3]) did it give?
The pKB mouse stomach was 5.6.

And the “Acid seretion at 10^-5 M test compound, relative to pentagastrin (%)” value (gastrin receptor [3])?
Its value is 22%.

What about the pKB (gastrin receptor [2]) of the same compound?
Its pKB is 5.6.

For `CC(C)(C)OC(=O)N[C@@H](Cc1c[nH]c2ccccc12)C(=O)N[C@@H](Cc1ccc2ccccc2c1)C(=O)N[C@@H](CC(=O)O)C(=O)N[C@@H]1CCC[C@H]1c1ccccc1` (single isomer, unassigned; diastereomer 2) [Example 32, N-t-Butyloxycarbonyl-L-tryptophyl-L-3-(2-naphthyl)alanyl-L-aspartyl-trans-2-phenylcyclopentylamide (diastereomer 2)], which pKB [1] is on record?
The pKB was 6.6.

And the pKB (gastrin receptor [2])?
The pKB was 6.1.

Which results are given for “N-t-Butyloxycarbonyl-L-tryptophyl-L-3-(2-naphthyl)alanyl-L-aspartyl-trans- 2-phenylcyclopropylamide [Example 29]”?
pKB [1]: 5.9; pKB (gastrin receptor [2]): 6.0

Which results are given for “N-t-Butyloxycarbonyl-L-tryptophyl-L-3-(2-naphthyl)alanyl-L-aspartyl-4-hydroxyphenethylamide [Example 38]”?
pKB [1]: 7.1; pKB (gastrin receptor [2]): 5.9

Which results are given for `CC(C)(C)OC(=O)N[C@@H](Cc1c[nH]c2ccccc12)C(=O)N[C@@H](Cc1ccc2ccccc2c1)C(=O)N[C@@H](CC(=O)O)C(=O)NCCc1ccc(Cl)cc1` [Example 8, N-t-Butyloxycarbonyl-L-tryptophyl-L-3-(2-naphthyl)alanyl-L-aspartyl-(4-chlorophenethyl)amide]?
pKB mouse stomach (gastrin receptor [3]): 5.9; Acid seretion at 10^-5 M test compound, relative to pentagastrin (%) (gastrin receptor [3]): 28%; pKB (gastrin receptor [2]): 5.0
